Assay results as given in US6869797B2, “Method for more efficient electroporation” (Stratagene California, priority 1998, dated 2005).

Key:
E. coli = test: Effect of additives added to thawed competent cells on electroporation efficiency (pCMV-Script plasmid); format: cell-based; settings: added after thawing, colonies with additive divided by colonies without
Experimental: Specifically, galactose (an aldohexose monosaccharide), maltose (an aldohexose disaccharide), mannitol (an aldohexose alcohol), and sorbitol (an aldohexose alcohol) additives were tested.
After two hours of freezing, competent cells were thawed and amounts varying between 0.1% and 5.0% of various sugar or sugar aldoses were added to the thawed cells. 1 μl of 10 pg/μl plasmid, pCMV-Script (Stratagene #211199) in TE buffer or water (or other low-ionic strength buffer) was added to 40 μl of the treated cells in a chilled 1.5 ml Microfuge tube. The cells were gently mixed and chilled.
The DNA-cell mixture was transferred to a chilled electroporation cuvette. The cuvette was pulsed once, using a Bio-Rad II Gene Pulsar, at 1.7 kV (kilo Volts), 200 Ω and 25 μF. The cuvette was immediately removed and 960 μl of SOC medium (2 ml of 20% glucose and 1 ml of 2M Mg per 100 ml of SOB medium) was added to resuspend the cells.
That suspension was transferred to a sterile 15-ml Falcon 2059 polypropylene tube and shaken at 225-250 rpm at 37° C. for 1 hour. We pipetted 2.5 μl of transformed cells into a 100 μl pool of SOC medium on an Amp plate (Sambrook et al. 1997). The cell/media mixture was spread over the Amp plates. The plates were incubated overnight (16-20 hours) at 37° C.

XL1-Blue cells = test: Effect of sorbitol added before freezing on electrotransformation efficiency (pUC18 plasmid); format: cell-based, E. coli; settings: average of 6 values
Experimental: The effect of adding sugars, prior to freezing the cells, was tested for improved electroporation efficiency. Sorbitol was chosen as the first test compound.
To determine the optimal concentration of sorbitol, the above protocol was followed to produce electrocompetent bacterial cells. However, before freezing the cells, a solution of sorbitol was added such that the final concentrations of the suspension of cells varied from 0%, 1.0%, 2.0%, and 2.5%.
1 μl of 10 pg/μl plasmid, pUC18 (New England Biolabs) in TE buffer or water (or other low-ionic strength buffer), was added to 40 μl of the treated cells in a chilled 1.5 ml Microfuge tube. Transformed cells were obtained by following the above protocol. Various experiments were run to determine the efficiency of transformation. Five different preparations were tested in triplicate, and each preparation was plated in duplicate.

[1] = additive final concentration 1.0%
[2] = additive final concentration 2.0%
[3] = additive final concentration 0.75%

OC[C@H]1O[C@H](O[C@H]2[C@H](O)[C@@H](O)C(O)O[C@@H]2CO)[C@H](O)[C@@H](O)[C@@H]1O (mixture of isomers) [maltose]
Relative efficiency (E. coli; [1]): 1.50
Relative efficiency (E. coli; additive final concentration 2.5%): 3.00
Relative efficiency (E. coli; additive final concentration 3.0%): 1.30
Relative efficiency (E. coli; additive final concentration 4.0%): 1.50

O=C[C@H](O)[C@@H](O)[C@@H](O)[C@H](O)CO [galactose]
Relative efficiency (E. coli; additive final concentration 0.5%): 2.20
Relative efficiency (E. coli; [1]): 1.50
Relative efficiency (E. coli; [2]): 2.40

OC[C@@H](O)[C@@H](O)[C@H](O)[C@H](O)CO [mannitol]
Relative efficiency (E. coli; [3]): 3.00
Relative efficiency (E. coli; [1]): 2.80
Relative efficiency (E. coli; additive final concentration 1.25%): 3.30
Relative efficiency (E. coli; [2]): 2.90
Relative efficiency (E. coli; additive final concentration 2.20%): 2.80
Relative efficiency (E. coli; additive final concentration 2.40%): 1.90

OC[C@@H](O)[C@@H](O)[C@H](O)[C@@H](O)CO [sorbitol]
Relative efficiency (E. coli; [3]): 2.20
Relative efficiency (E. coli; [1]): 2.80
Relative efficiency (E. coli; additive final concentration 1.50%): 3.10
Relative efficiency (E. coli; [2]): 1.50
Efficiency (cfu/ug pUC18) (XL1-Blue cells; Experiment #1, 2.0% sorbitol added before freezing): 1.2 × 10^10 cfu/ug pUC18
Efficiency (cfu/ug pUC18) (XL1-Blue cells; Experiment #1, 2.5% sorbitol added before freezing): 1.6 × 10^10 cfu/ug pUC18
Efficiency (cfu/ug pUC18) (XL1-Blue cells; Experiment #2, 1.0% sorbitol added before freezing): 1.23 × 10^10 cfu/ug pUC18
Efficiency (cfu/ug pUC18) (XL1-Blue cells; Experiment #2, 2.0% sorbitol added before freezing): 1.66 × 10^10 cfu/ug pUC18
Efficiency (cfu/ug pUC18) (XL1-Blue cells; Experiment #2, 2.5% sorbitol added before freezing): 1.48 × 10^10 cfu/ug pUC18
Efficiency (cfu/ug pUC18) (XL1-Blue cells; Experiment #3, 1.0% sorbitol added before freezing): 1.03 × 10^10 cfu/ug pUC18
Efficiency (cfu/ug pUC18) (XL1-Blue cells; Experiment #3, 2.0% sorbitol added before freezing): 1.23 × 10^10 cfu/ug pUC18
Efficiency (cfu/ug pUC18) (XL1-Blue cells; Experiment #3, 2.5% sorbitol added before freezing): 1.33 × 10^10 cfu/ug pUC18
Efficiency (cfu/ug pUC18) (XL1-Blue cells; Experiment #4, 2.0% sorbitol added before freezing): 1.29 × 10^10 cfu/ug pUC18
Efficiency (cfu/ug pUC18) (XL1-Blue cells; Experiment #4, 2.5% sorbitol added before freezing): 1.39 × 10^10 cfu/ug pUC18
Efficiency (cfu/ug pUC18) (XL1-Blue cells; Experiment #5, 2.0% sorbitol added before freezing): 1.60 × 10^10 cfu/ug pUC18
Efficiency (cfu/ug pUC18) (XL1-Blue cells; Experiment #5, 2.5% sorbitol added before freezing): 1.60 × 10^10 cfu/ug pUC18
